Data as given in patent US9951058B2, “Compound, pharmaceutically acceptable salt or optical isomer thereof, method for preparing the same, and pharmaceutical composition for prevention or treatment of viral diseases containing same as active ingredient” (Korea Research Institute of Chemical Technology, priority 2012, dated 2018).
In brackets after ≈: the same amount, converted by molar mass.

How the values were obtained:
[1] = test system: HRV 14; experiment: Cytopathic effect (CPE) inhibition assay; format: cell-based, human rhinovirus; conditions: Human rhinovirus sp., HeLa, 72 h, host cell HeLa, 3 days, MEM/2% FBS, MTT assay; read-out: EC50 HRV 14
[2] = test system: HRV 21; experiment: Cytopathic effect (CPE) inhibition assay; format: cell-based, human rhinovirus; conditions: Human rhinovirus sp., 72 h; host cell HeLa, 3 days, MEM/2% FBS, MTT assay; read-out: EC50 HRV 21
[3] = test system: HRV 71; experiment: Cytopathic effect (CPE) inhibition assay; format: cell-based, human rhinovirus; conditions: Human rhinovirus sp., 72 h; host cell HeLa, 3 days, MEM/2% FBS, MTT assay; read-out: EC50 HRV 71
[4] = test system: coxsackievirus B1 (Cox B1); experiment: Multicycle cytopathic effect (CPE) reduction assay; format: cell-based; conditions: Enterovirus B, B1, 72 h, read-out: EC50 CoxB1
[5] = test system: coxsackievirus B3 (Cox B3); experiment: Multicycle cytopathic effect (CPE) reduction assay; format: cell-based; conditions: Enterovirus B, B3, 72 h, read-out: EC50 CoxB3
[6] = test system: poliovirus 3 (PV3); experiment: microbe, parasite or virus in culture; format: cell-based; conditions: Enterovirus C, 72 h, read-out: EC50 PV3
[7] = in vitro; conditions: human
[8] = Cytotoxicity (CC50) in multicycle CPE reduction assay, MTS; conditions: human

Row | Structure (SMILES) | EC50 [1] [µg/mL] | EC50 [2] [µg/mL] | EC50 [3] [µg/mL] | EC50 [4] [µg/mL] | EC50 [5] [µg/mL] | EC50 [6] [µg/mL] | CC50 [7] [µg/mL] | CC50 at 3 days [8] [µg/mL]
1 | CC(C)c1ccc2c(c1)OC1(O)c3c(cccc3[N+](=O)[O-])C(=O)C21NC(=O)C(=O)N(C)C (centres unmarked) [Example 30, N1-(4b-hydroxy-7-isopropyl-4-nitro-10-oxo-4b, 10-dihydro-9bH-indeno[1,2-b]benzofuran-9b-yl)-N2-N2-dimethyl oxal amide] | > 10 | > 10 | > 10 | < 10 | < 10 | > 10 | > 10 | > 10
2 | CC(C)c1ccc2c(c1)OC1(O)c3ccccc3C(=O)C21NC(=O)C(=O)CBr (centres unmarked) [Example 41, 3-bromo-N-(4b-hydroxy-7-isopropyl-10-oxo-4b, 10-dihydro-9bH-indeno[1,2-b]benzofuran-9b-yl)-2-oxo propanamide] | < 10 | > 10 | > 10 | < 0.1 | < 0.1 | > 10 | > 10 | > 10
3 | CC(C)c1ccc2c(c1)OC1(O)c3c(cccc3[N+](=O)[O-])C(=O)C21NC(=O)C(=O)c1c[nH]c2ccccc12 (centres unmarked) [Example 8, N-(4b-hydroxy-7-isopropyl-4-nitro-10-oxo-9b, 10-dihydro-4bH-indeno[1,2-b]benzofuran-9b-yl)-2-(1H-indol-3-yl)-2-oxo acetamide] | 2.31 (≈ 4.52 µM) | > 10 | > 10 | 0.56 (≈ 1.09 µM) | 1.82 (≈ 3.56 µM) | 9.8 (≈ 19.2 µM) | > 10 | > 10
4 | COc1ccc(/C=C/C(=O)C(=O)NC23C(=O)c4ccccc4C2(O)Oc2cc(C(C)C)ccc23)cc1OC (centres unmarked) [Example 24, (E)-4-(3,4-dimethoxyphenyl)-N-(4b-hydroxy-7-isopropyl-10-oxo-4b, 10-dihydro-9bH-indeno[1,2-b]benzofuran-9b-yl)-2-oxobut-3-enamide] | < 10 | > 10 | > 10 | < 0.1 | < 0.1 | < 10 | > 10 | > 10
5 | CNC(=O)C(=O)NC12C(=O)c3ccccc3C1(O)Oc1cc(C(C)C)ccc12 (centres unmarked) [Example 27, N1-(4b-hydroxy-7-isopropyl-10-oxo-4b, 10-dihydro-9bH-indeno[1,2-b]benzofuran-9b-yl)-N2-methyl oxal amide] | < 1 | > 10 | > 10 | < 0.1 | < 0.1 | < 10 | > 10 | > 10
6 | CC(C)c1ccc2c(c1)OC1(O)c3ccccc3C(=O)C21NC(=O)C(=O)N(C)C (centres unmarked) [Example 21, N1-(4b-hydroxy-7-isopropyl-10-oxo-4b, 10-dihydro-9bH-indeno[1,2-b]benzofuran-9b-yl)-N2, N2-dimethyl oxal amide] | < 1 | > 10 | > 10 | < 0.1 | < 0.1 | < 10 | > 10 | > 10
7 | CCC(C)C(=O)C(=O)NC12C(=O)c3cccc([N+](=O)[O-])c3C1(O)Oc1cc(C(C)C)ccc12 (centres unmarked) [Example 28, N-(4b-hydroxy-7-isopropyl-4-nitro-10-oxo-4b, 10-dihydro-9bH-indeno[1,2-b]benzofuran-9b-yl)-3 methyl-2-oxo pentanamide] | < 10 | > 10 | > 10 | < 1 | < 10 | > 10 | > 10 | > 10
8 | CSCCC(=O)C(=O)NC12C(=O)c3ccccc3C1(O)Oc1cc(C(C)C)ccc12 (centres unmarked) [Example 17, N-(4b-hydroxy-7-isopropyl-10-oxo-9b, 10-dihydro-4bH-indeno[1,2-b]benzofuran-9b-yl)-4-(methylthio)-2-oxo butanamide] | 6.99 (≈ 16.4 µM) | > 10 | > 10 | 0.033 (≈ 0.0776 µM) | 0.067 (≈ 0.157 µM) | 2.61 (≈ 6.13 µM) | > 10 | > 10
9 | CC(C)c1ccc2c(c1)OC1(O)c3ccccc3C(=O)C21NC(=O)CCC(=O)O (centres unmarked) [Example 43] | > 10 | > 10 | > 10 | < 1 | < 1 | > 10 | > 10 | > 10
10 | CC(C)c1ccc2c(c1)OC1(O)c3ccccc3C(=O)C21NC(=O)C(=O)CCc1ccccc1 (centres unmarked) [Example 39, N-(4b-hydroxy-7-isopropyl-10-oxo-4b, 10-dihydro-9bH-indeno[1,2-b]benzofuran-9b-yl)-2-oxo-4-phenyl butanamide] | < 10 | > 9.5 | > 9.5 | < 0.1 | < 0.1 | < 10 | 9.5 (≈ 20.9 µM) | > 10
11 | Cc1cc2c(cc1C)C1(NC(=O)C(=O)c3ccccc3)C(=O)c3ccccc3C1(O)O2 (centres unmarked) [Example 12, N-(4b-hydroxy-7,8-dimethyl-10-oxo-9b, 10-dihydro-4bH-indeno[1,2-b]benzofuran-9b-yl)-2-oxo-2-phenyl acetamide] | 2.08 (≈ 5.03 µM) | > 10 | > 10 | 0.015 (≈ 0.0363 µM) | 0.064 (≈ 0.155 µM) | 9.8 (≈ 23.7 µM) | > 10 | > 10
12 | CCCC(=O)C(=O)NC12C(=O)c3c(N)cccc3C1(O)Oc1cc(C(C)C)ccc12 (centres unmarked) [Example 52, N-(1-amino-4b-hydroxy-7-isopropyl-10-oxo-4b, 10-dihydro-9bH-indeno[1,2-b]benzofuran-9b-yl)-2-oxo pentanamide] | < 0.01 | > 10 | > 10 | < 0.01 | < 0.01 | < 0.1 | > 10 | > 10
13 | CCC(C)C(=O)C(=O)NC12C(=O)c3ccccc3C1(O)Oc1cc(C(C)C)ccc12 (centres unmarked) [Example 29, N-(4b-hydroxy-7-isopryl-10-oxo-4b, 10-dihydro-9bH-indeno[1,2-b]benzofuran-9b-yl)-3-methyl-2-oxo pentanamide] | < 1 | > 10 | > 10 | < 0.1 | < 0.1 | < 1 | > 10 | > 10
14 | CC(C)c1ccc2c(c1)OC1(O)c3ccccc3C(=O)C21NC(=O)C(=O)c1ccco1 (centres unmarked) [Example 7, 2-(furan-2-yl)-N-(4b-hydroxy-7-isopropyl-10-oxo-9b, 10-dihydro-4bH-indeno[1,2-b]benzofuran-9b-yl)-2-oxo acetamide] | < 0.1 | > 10 | > 10 | < 0.01 | < 0.01 | < 1 | > 10 | > 10
15 | CC(C)c1ccc2c(c1)OC1(O)c3ccccc3C(=O)C21NC(=O)CNC(=O)OC(C)(C)C (centres unmarked) [Example 63, tert-butyl (2-((4b-hydroxy-7-isopropyl-10-oxo-4b, 10-dihydro-9bH-indeno[1,2-b]benzofuran-9b-yl)amino)-2-oxoethyl)carbamate] | < 1 | > 10 | > 10 | < 0.1 | < 0.1 | < 10 | > 10 | > 10
16 | CCCC(=O)C(=O)NC12C(=O)c3cccc([N+](=O)[O-])c3C1(O)Oc1cc(C(C)C)ccc12 (centres unmarked) [Example 34, N-(4b-hydroxy-7-isopropyl-4-nitro-10-oxo-4b, 10-dihydro-9bH-indeno[1,2-b]benzofuran-9b-yl)-2-oxo pentanamide] | < 10 | > 10 | > 10 | < 1 | < 10 | < 10 | > 10 | > 10
17 | CC(C)c1ccc2c(c1)OC1(O)c3c(cccc3[N+](=O)[O-])C(=O)C21NC(=O)C(=O)CCc1ccccc1 (centres unmarked) [Example 53, N-(4b-hydroxy-7-isopropyl-4-nitro-10-oxo-4b, 10-dihydro-9bH-indeno[1,2-b]benzofuran-9b-yl)-2-oxo-4-phenyl butanamide] | > 4.8 | > 4.8 | > 4.8 | < 10 | < 10 | > 10 | 4.8 (≈ 9.59 µM) | > 10
18 | CC(C)CC(=O)C(=O)NC12C(=O)c3c(N)cccc3C1(O)Oc1cc(C(C)C)ccc12 (centres unmarked) [Example 49, N-(1-amino-4b-hydroxy-7-isopropyl-10-oxo-4b, 10-dihydro-9bH-indeno[1,2-b]benzofuran-9b-yl)-4-methyl-2-oxo pentanamide] | < 0.1 | > 10 | > 10 | < 0.01 | < 0.01 | < 0.1 | > 10 | > 10
19 | CCCCCCC(=O)C(=O)NC12C(=O)c3ccccc3C1(O)Oc1cc(C(C)C)ccc12 (centres unmarked) [Example 6, N-(4b-hydroxy-7-isopropyl-10-oxo-9b, 10-dihydro-4bH-indeno[1,2-b]benzofuran-9b-yl)-2-oxo octanamide] | < 1 | > 8.57 | > 8.57 | 0.013 (≈ 0.0298 µM) | 0.015 (≈ 0.0344 µM) | 1.23 (≈ 2.82 µM) | 8.57 (≈ 19.7 µM) | 8.57 (≈ 19.7 µM)
